Values of other authors as cited in US20220054404A1, “SUBCUTANEOUS ADMINISTRATION OF NANOPARTICLES COMPRISING AN MTOR INHIBITOR AND ALBUMIN FOR TREATMENT OF DISEASES” (Abraxis BioScience, LLC, priority 2019, published 2022).

Tested on: ABCB1/ABCG2

## COc1ccc(COc2cc3oc(=O)c4cc(C(C)O)ccc4c3cc2OC)cc1 (stereo not shown) [Palomid 529]
  Affinity for ABCB1/ABCG2: lacks affinity for ABCB1/ABCG2
